Legend:
[1] = in vivo; cited from earlier work
[2] = literature reports; cited from earlier work
[3] = system: early-mild Parkinson's Disease; settings: after eight weeks (end of study); cited from earlier work
mild PD patients = settings: in comparison to levodopa; cited from earlier work
[4] = system: early and moderate-to-advanced PD patients; settings: 1 mg dose once daily; cited from earlier work
[5] = system: patients with PD-related Dementia (PDD); settings: cited from earlier work
[6] = system: non demented patients with early PD; assay: Cogtest cognitive battery in double blind Phase III study, safinamide added to a dopamine agonist; assay type: in vivo, human
Text: Cogtest® (Computerized Cognitive Test Battery for Clinical Trials) is designed to provide with the highest quality computerised cognitive tests for use in clinical trials. All cognitive tests in the Cogtest® battery have been developed by academic neuropsychologists and clinical trials specialists. This ensures that the most recent developments in cognitive neuroscience, including neurophysiological, functioning neuroimaging and pharmacogenic evidence are incorporated into the Cogtest® library of procedures and into pharmaceutical clinical trials.
The Cogtest PD battery has been prepared, based on a review of the available tests in the Cogtest library and selection of those tests that would most usefully comprise a battery suitable for Parkinson's Disease. However the same tasks are used in other pathological conditions for testing the two main domains of cognition, reaction time and power.
The battery takes from 20-30 minutes to administer, and is applicable across different cultures and countries. The following tests were included in the battery:
The Auditory Number Sequencing task is a test of working memory and executive function. The participant will be presented with clusters of numbers (e.g. 936) of increasing length (from 2 digits to a maximum of 8 digits). They will be asked to tell the tester the numbers in order, from lowest to highest. […]
This test is similar to the paper-and-pencil ‘cancellation’ tests or the cross-out’ subtest of the WAIS-III, where subjects are required to crossout target stimuli embedded among distracters. […] The variables measured are: Total Experiment Time (from the end of the ‘Get ready’ screen to the end of the last response, in msec), Total Correct responses, Total Perseverative Errors (erroneous pressing of the shape that was the target of the last set, but is not for this set), Strategic efficiency variable (the cumulative distance of territory transversed, i.e., between the location of correct presses on screen for each set) according to literature (Weintraub, S., & Mesulam, M. M. (1987). Archives of Neurology 44 621-625). […]

cholinesterase = settings: cited from earlier work
glutamate receptors = settings: cited from earlier work
[7] = system: non demented patients with early PD; assay: UPDRS motor scores in six month double blind clinical trial; assay type: in vivo, human; settings: safinamide associated to a dopamine agonist, compared to the group treated with the DA alone
Experimental: A double blind Phase III study, placebo controlled, parallel-group, randomized, multinational was conducted comparing 2 oral doses of Safinamide versus placebo. The placebo group was constituted by patients treated with a stable dose of a dopamine agonist. The dopamine agonist could have been any of the ones used in clinical practice, according to clinical procedures in the different countries. 269 patients (˜90 per arm), were enrolled and treated for six months. Primary efficacy variable was UPDRS III. All the randomized patients were tested for cognitive impairment with Cogtest at Screening, Baseline, week 12 and week 24 (or early discontinuation).

PD patients = settings: after 3 month treatment; cited from earlier work
glutamate release = settings: in condition of pathological glutamate overflow; cited from earlier work
MAO-B = biological target: T1, MAO-B (Homo sapiens, UniProt P27338); settings: cited from earlier work
T1 sequence (P27338 1-520): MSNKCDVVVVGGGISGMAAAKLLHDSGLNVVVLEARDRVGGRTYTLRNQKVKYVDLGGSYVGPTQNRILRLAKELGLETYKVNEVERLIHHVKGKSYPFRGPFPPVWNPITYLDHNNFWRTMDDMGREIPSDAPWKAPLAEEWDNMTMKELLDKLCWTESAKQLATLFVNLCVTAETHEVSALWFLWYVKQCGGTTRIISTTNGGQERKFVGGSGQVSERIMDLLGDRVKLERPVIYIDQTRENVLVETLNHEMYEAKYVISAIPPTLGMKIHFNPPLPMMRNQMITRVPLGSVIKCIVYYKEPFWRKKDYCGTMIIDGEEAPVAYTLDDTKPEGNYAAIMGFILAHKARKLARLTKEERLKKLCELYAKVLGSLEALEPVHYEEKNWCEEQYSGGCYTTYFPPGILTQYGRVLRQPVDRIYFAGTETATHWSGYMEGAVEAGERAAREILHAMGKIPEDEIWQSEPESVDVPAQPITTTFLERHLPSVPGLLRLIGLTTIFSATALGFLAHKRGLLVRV

animal models = settings: cited from earlier work
MAO-A = biological target: T2, MAO-A (Homo sapiens, UniProt P21397); settings: cited from earlier work
T2 sequence (P21397 1-527): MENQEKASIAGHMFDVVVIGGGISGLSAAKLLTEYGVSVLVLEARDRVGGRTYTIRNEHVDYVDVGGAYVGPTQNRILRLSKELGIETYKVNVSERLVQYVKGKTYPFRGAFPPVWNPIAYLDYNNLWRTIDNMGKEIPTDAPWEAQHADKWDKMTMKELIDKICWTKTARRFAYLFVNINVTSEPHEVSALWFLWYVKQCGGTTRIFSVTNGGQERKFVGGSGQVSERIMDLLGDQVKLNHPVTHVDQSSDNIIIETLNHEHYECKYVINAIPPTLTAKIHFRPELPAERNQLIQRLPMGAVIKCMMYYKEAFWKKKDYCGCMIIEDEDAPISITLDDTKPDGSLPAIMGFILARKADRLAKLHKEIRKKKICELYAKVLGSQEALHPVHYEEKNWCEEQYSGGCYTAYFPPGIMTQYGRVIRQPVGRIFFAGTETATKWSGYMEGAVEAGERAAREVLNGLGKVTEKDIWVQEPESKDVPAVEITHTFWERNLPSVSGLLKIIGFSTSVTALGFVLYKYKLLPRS

normal rats = settings: safinamide per se; cited from earlier work

Structure (SMILES): CN1CCc2cccc3c2[C@H]1Cc1ccc(O)c(O)c1-3 [apomorphine]
- reaction times in visual-spatial working memory (WM) [1]: negative effect

Structure (SMILES): N[C@@H](Cc1ccc(O)c(O)c1)C(=O)O [levodopa]
- effect on cognition [2]: no effect on cognition, or even impairment

Structure (SMILES): CCCN1C[C@H](CSC)C[C@@H]2c3cccc4[nH]cc(c34)C[C@H]21 [pergolide]
- cognitive test scores [3]: without showing amelioration

Structure (SMILES): CCCN[C@H]1CCc2nc(N)sc2C1 [pramipexole]
- short term verbal memory and attentional-executive functions (mild PD patients): impaired
- verbal fluency (mild PD patients): slightly but significantly worsened

Structure (SMILES): C#CCN[C@@H]1CCc2ccccc21 [rasagiline]
- occurrence of cognitive and behavioural adverse events [4]: without significantly increasing
- symptoms of PD, including motor fluctuations [4]: improved

Structure (SMILES): CCN(C)C(=O)Oc1cccc([C@H](C)N(C)C)c1 [rivastigmine]
- subjective worsening of tremor reported ([5]; in vivo): 1.7%
- patients dropped out due to adverse events ([5]; most commonly due to nausea): 17%
- response on primary (ADAS-Cog, Clinical Global Impression of Change) and all secondary outcome measures ([5]; versus placebo, differences were moderate): responded better

Structure (SMILES): C[C@H](NCc1ccc(OCc2cccc(F)c2)cc1)C(N)=O [safinamide, (S)-(+)-2-[4-(3-fluorobenzyloxy)-benzylamino]-propanamide]
- several cognitive variables (Cogtest), change from baseline ([6]; both groups, low and high dose of safinamide, with a stable dose of a DA, three and six months evaluation times, most marked for executive function): significant improvement from baseline
- Strategic Target Detection test, observed score (Z-score) ([6]; both treated groups (low and high dose of safinamide), from baseline to both three and six months): significant improvement
- cognition compared with DA alone (control group) and with pretreatment ([6]; safinamide associated to a dopamine agonist, check at three and six months after start of treatment): ameliorate cognitive worsening observed in controls and/or improve cognition as compared to pretreatment
- cholinesterase inhibition (cholinesterase): not cholinesterase inhibitors
- affinity for any of the glutamate receptors (glutamate receptors): no affinity
- UPDRS scores (motor symptoms) [7]: significantly ameliorate
- UPDRS scores (PD patients): significantly ameliorated
- glutamate release inhibition (glutamate release): glutamate release inhibitor
- MAO-B inhibition (MAO-B): selective MAO-B inhibitor
- long term neuroprotective effects (animal models): demonstrated
- activity on MAO-A (MAO-A): devoid of activity
- cognition in the rat passive avoidance test (normal rats): does not ameliorate cognition

Reference: patent US8741957B2, “Alpha-aminoamide derivatives useful in the treatment of cognitive disorders” (priority 2006, dated 2014)
